Experimental data: patent EP2150534B1, “ISOQUINOLINONE DERIVATIVES AS NK3 ANTAGONISTS” (H. Lundbeck A/S, priority 2007, dated 2008)
Read-outs that look alike come from different tables or passages of the source.

What was measured:
[1] = target: T1, human NK3 receptor (Homo sapiens, UniProt P29371); assay: NK3 receptor efficacy and potency assay (FLIPR Calcium 4 assay, BHK cells; agonist and antagonist mode versus NKB); type: cell-based; settings: read-out: Potency cIC50
T1 construct: expressed in transfected cells; membranes prepared from them
T1 sequence (P29371 1-465): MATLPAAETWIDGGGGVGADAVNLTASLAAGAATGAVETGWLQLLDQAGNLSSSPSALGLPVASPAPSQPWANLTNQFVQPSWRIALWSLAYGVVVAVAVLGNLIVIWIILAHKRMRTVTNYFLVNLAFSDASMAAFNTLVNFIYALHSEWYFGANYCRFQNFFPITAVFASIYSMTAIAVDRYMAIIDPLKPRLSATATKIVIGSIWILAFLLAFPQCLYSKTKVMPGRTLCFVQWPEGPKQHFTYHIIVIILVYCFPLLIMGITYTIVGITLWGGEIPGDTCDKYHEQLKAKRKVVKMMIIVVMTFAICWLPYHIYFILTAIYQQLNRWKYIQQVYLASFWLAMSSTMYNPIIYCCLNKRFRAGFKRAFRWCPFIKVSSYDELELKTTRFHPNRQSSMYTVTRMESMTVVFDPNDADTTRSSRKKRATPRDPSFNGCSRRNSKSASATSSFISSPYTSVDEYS
Protocol: BHK cells stably expressing the human NK3 receptor were seeded in 100 µl media in black walled clear-base 96-wells plates (Costar) aiming at a confluency of 95-100% at the day of assay. The assay was performed according to the FLIPR Calcium 4 Assay kit (Molecular Devices). At the day of the assay, the media was removed and the cells were washed once with the HBSS buffer (Hanks BSS buffer, pH 7,4 containing 20 mM Hepes) before 100 µl of a solution of the calcium assay reagent dissolved in the HBSS buffer containing 2,5 mM probinicid was added to the cells. The plates were incubated for 60 min at 34°C, 10% CO2 before use in the FLIPR for examination of fluorescence.
For efficacy and potency evaluation of compounds, these were diluted in HBSS buffer prior to test. For test of agonist activity, 25 µl of the diluted compound solution was added and the plate was analyzed for 5 minutes in the FLIPR. […] The plates were subsequently analyzed for 5 minutes before the assay was terminated. The maximal increase in fluorescence over background following each ligand addition was determined.

[2] = target: T1, human NK3 receptor; assay: NK3 receptor binding assay (SPA-based competition binding with 125I-NKB, membranes of BHK cells)
Protocol: Membranepreparation: BHK cells stably expressing the human NK3 receptor were seeded in harvesting plates in Dulbeccos MEM containing GlutaMax (862 mg/l), 1 mM sodium pyruvate, 10% fetal calf serum, 1% Pen/Strep, I mg/ml G418 and were grown at 34 °C in a humidified atmosphere containing 10% CO2. To increase receptor expression, 10 µM trichotatin A was added to the media 24 hours before harvest of the cells at a confluency of app 90%. Prior to the harvesting, the cells were washed twice with PBS without Mg^2+ og Ca^2+ and subsequently scrapped of in 10 ml PBS pr harvesting plate. The cells suspension were centrifuged at 1500xG in three minutes before resuspension in 15 mM Tris-HCl pH 7,5 buffer containing 2 mM MgCl2; 0,3 mM EDTA and 1 mM EGTA (buffer A). The cell suspention was homogenised and subsequently centrifuged at 40000xG in 30 minutes. The membrane-pellet was resuspended in buffer A containing 250 mM sucrose, alliquoted and stored at - 80°C.
Affinity assay description: The assay was performed as a SPA-based competition-binding assay in a 50 mM Tris pH 7.4 assay buffer containing 120 mM NaCl, 3 mM MnCl2, 40 µg/ml bacitracin, 2 µg/ml Chymostatin, 1 µg/ml Phosphoramidon and 4 µg/ml Leupeptin. App 0.02 nM ^125I-NKB was mixed with test compounds before addition of 4 µg of the homogenised NK3 membrane preparation and 0,025 mg SPA beads in a total volume of 60 µl. The assay plate was subsequently under agitation incubated for 90 min at RT. The plate was centrifugated 10 minutes at 500xG and counted in a topcounter 5 minuttes pr well.
The non-specific binding constituted app 5 % of the total binding.
Data points were expressed in percent of the specific binding of ^125I-NKB and the IC50 values (concentration causing 50 percent inhibition of ^125I-NKB specific binding) were determined by non-linear regression analysis using a sigmoidal variable slope curve fitting. The dissociation constant (Ki) were calculated from the Cheng Prusoff equation (Ki = IG50/(1+(L/KD))), where the concentration of free radioligand L is approximated to the concentration of added ^125I-NKB in the assay (app 0,02 nM).
The KD of ^125I-NKB was determined to be 0,7 nM from three independent saturation assays each performed with duplicate determinations. Bmax was app 2 pmol/mg.

[3] = Ki for the NK3 receptor, table of Example 9, 125I-NKB competition binding, read-out: Ki
[4] = table of Example 10, affinity obtained as described in Example 9, read-out: Affinity Ki

IC50 [1] [nM]	Ki [2, 3] [nM]	Ki [2, 4] [nM]	SMILES
14	8.2	8.8	CC[C@H](NC(=O)c1c(CN2CCN(CCN3CCOCC3)CC2)n(-c2ccccc2)c(=O)c2ccccc12)c1ccccc1 [Example 2bm, 3-[4-(2-Morpholin-4-yl-ethyl)-piperazin-1-ylmethyl]-1-oxo-2-phenyl-1,2-dihydro-isoquinoline-4-carboxylic acid ((S)-1-phenyl-propyl)-amide]
29		6.2	O=C(NC(c1cccc(F)c1)C1CC1)c1c(CN2CCN(CCN3CCCCC3)CC2)n(-c2ccccc2)c(=O)c2ccccc12 (stereo not shown) [Example 2hu, 1-Oxo-2-phenyl-3-[4-(2-piperidin-1-yl-ethyl)-piperazin-1-ylmethyl]-1,2-dihydro-isoquinoline-4-carboxylic acid [cyclopropyl-(3-fluoro-phenyl)-methyl]-amide]
6.3		7.9	CC(C)(C)N1CCN(Cc2c(C(=O)N[C@H](c3cccc(F)c3)C3CC3)c3cccc(F)c3c(=O)n2-c2ccccc2)CC1 [Example 2ll, 3-(4-tert-Butyl-piperazin-1-ylmethyl)-8-fluoro-1-oxo-2-phenyl-1,2-dihydro-isoquinoline-4-carboxylic acid [(S)-cyclopropyl-(3-fluoro-phenyl)-methyl]-amide]
21	5.3	7.5	O=C(NC(c1cccc(F)c1)C1CC1)c1c(CN2CCN(CCN3CCOCC3)CC2)n(-c2ccccc2)c(=O)c2ccccc12 (stereo not shown) [Example 2hs]
63		8.2	O=C(NC(c1cccc(F)c1)C1CC1)c1c(CN2CCN(Cc3ccncc3)CC2)n(-c2ccccc2)c(=O)c2ccccc12 (stereo not shown) [Example 2hw, 1-Oxo-2-phenyl-3-(4-pyridin4-methyl-piperazin-1-ylmethyl)-1,2-dihydro-isoquinoline-4-carboxylic acid [cyclopropyl-(3-fluoro-phenyl)-methyl]-amide]
16		18	CC[C@H](NC(=O)c1c(CN2CCN(C(C)(C)C)CC2)n(-c2ccccc2)c(=O)c2c(F)cccc12)c1ccccc1 [Example 2lj, 3-(4-tert-Butyl-piperazin-1-ylmethyl)-8-fluoro-1-oxo-2-phenyl-1,2-dihydro-isoquinoline-4-carboxylic acid ((S)-1-phenyl-propyl)-amide]

The remaining lines, values behind:

SMILES	IC50 [1] [nM]	Ki [2, 3] [nM]	Ki [2, 4] [nM]
COc1cccc(C2(O)CCN(Cc3c(C(=O)NC(c4cccc(F)c4)C4CC4)c4ccccc4c(=O)n3-c3ccccc3)CC2)c1 (stereo not shown) [Example 2hz, 3-[4-Hydroxy-4-(3-methoxy-phenyl)-piperidin-1-ylmethyl]-1-oxo-2-phenyl-1,2-dihydro-isoquinoline-4-carboxylic acid [cyclopropyl-(3-fluoro-phenyl)-methyl]-amide]	35	3	4.5
CC[C@H](NC(=O)c1c(CN2CCC(O)(c3cccc(OC)c3)CC2)n(-c2cccc(F)c2)c(=O)c2ccccc12)c1ccccc1 [Example 2iy, 2-(3-Fluoro-phenyl)-3-[4-hydroxy-4-(3-methoxy-phenyl)-piperidin-1-ylmethyl]-1-oxo-1,2-dihydro-isoquinoline-4-carboxylic acid ((S)-1-phenyl-propyl)-amide]	92		17
Cc1c(C(=O)N[C@H](c2ccccc2)C2CC2)c2cccc(F)c2c(=O)n1-c1ccccc1 [Example 6c, 8-Fluoro-3-methyl-1-oxo-2-phenyl-1,2-dihydro-isoquinoline-4-carboxylic acid ((S)-cyclopropyl-phenyl-methyl)-amide]	24		23
CC[C@H](NC(=O)c1c(CN2CCN(C(C)(C)C)CC2)n(-c2ccccc2)c(=O)c2c(Cl)cccc12)c1ccccc1 [Example 2ko, 3-(4-tert-Butyl-piperazin-1-ylmethyl)-8-chloro-1-oxo-2-phenyl-1,2-dihydro-isoquinoline-4-carboxylic acid ((S)-1-phenyl-propyl)-amide]	5.6		11
CC[C@H](NC(=O)c1c(CN2CCCC2=O)n(-c2ccccc2)c(=O)c2c(Cl)cccc12)c1ccccc1 [Example 3b]	47		32
